These results are taken from article PMC8805037, “Ready access to 7,8-dihydroindolo[2,3-d][1]benzazepine-6(5H)-one scaffold and analogues via early-stage Fischer ring-closure reaction” (Beilstein Journal of Organic Chemistry, 2022).

The IC50 is the concentration that gives 50% inhibition.

This assay deals with proto-oncogene tyrosine-protein kinase Src (Homo sapiens, UniProt P12931). Put plainly: IC50 reported as preliminary result; assay not described in the text shown. Format: biochemical.
Sequence of proto-oncogene tyrosine-protein kinase Src (P12931 2-536): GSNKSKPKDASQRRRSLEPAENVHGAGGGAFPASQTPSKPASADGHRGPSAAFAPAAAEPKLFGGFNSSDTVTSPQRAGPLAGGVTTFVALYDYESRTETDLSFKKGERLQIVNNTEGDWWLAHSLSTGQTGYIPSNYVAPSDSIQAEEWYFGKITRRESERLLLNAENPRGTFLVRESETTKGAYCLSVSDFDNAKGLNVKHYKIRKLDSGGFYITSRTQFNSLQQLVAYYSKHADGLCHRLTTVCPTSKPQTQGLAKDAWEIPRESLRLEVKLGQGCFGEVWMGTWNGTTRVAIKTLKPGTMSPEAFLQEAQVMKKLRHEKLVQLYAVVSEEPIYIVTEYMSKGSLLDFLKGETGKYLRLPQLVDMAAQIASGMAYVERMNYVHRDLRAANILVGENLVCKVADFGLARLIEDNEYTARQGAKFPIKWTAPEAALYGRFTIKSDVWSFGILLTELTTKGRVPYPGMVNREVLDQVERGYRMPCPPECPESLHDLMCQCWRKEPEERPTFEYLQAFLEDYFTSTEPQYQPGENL

The compound `O=C1Cc2[nH]c3ccccc3c2-c2ccccc2N1` [C, 7,8-dihydroindolo[2,3-d][1]benzazepin-6(5H)-one] displayed an IC50 of 260 nM.
